From patent US10208007B2, “Use of strigolactones and strigolactone analogs for treating proliferative conditions” (The State of Israel, Ministry of Agriculture & Rural …, priority 2011, dated 2019)
Values joined by “and” are separate entries in the source; they are usually repeats but may differ in a detail not shown here. Equal values may be shown once.

Experiments:
MCF10A = details: 3 days
Procedure: Results are presented as Average±SD of replicate analyses and are either representative of, or inclusive of at least two independent experiments. Statistical analyses were performed using student's t-test (2-tailed, paired) versus vehicle controls and are regarded as being significant when P<0.05(*). Higher powers (p<0.01, p<0.001) are also employed and indicated in each figure legend. IC50 doses for strigolactone analogs were calculated by interpolation of the sigmoidal dose response curves (Graphpad Prism 4.0 software). Briefly, linear regression was performed between relevant y-axis data points and interpolation calculated for x-axis unknowns.
Cells were seeded into a 96 well plates at 1500 cells per well (MCF-10, PC3, DU145, MDA-MB-231, MDA-MB-436, HT-29, SW480), 1000 cells per well (K562) or 4000 cells per well (MCF-7, HCT116) in triplicate in normal growing media (with the exception of K562, a non-adherent leukemic cell line which was seeded in phenol-free DMEM supplemented with 10% charcoal-stripped FBS). The following day media was replaced with phenol-free DMEM supplemented with 10% charcoal stripped FBS and the indicated final concentrations of strigolactone analog or vehicle (acetone) alone. Cells were incubated for 3 days, at which time XTT (2,3,-bis(2-methoxy-4-nitro-5-sulfophenyl)-5-[(phenylamino)-carbonyl]-2H-tetrazolium inner salt) reduction was used to quantify viability according to manufacturer's instruction (ATCC). Cells were incubated with XTT reagent for 2-3 hours at 37° C. in a humidified 5% CO2-95% air atmosphere. Absorbance was recorded by a photometer [sequence]luor Plus, Tecan (Salzburg, Austria) at 450 nm with 750 nm of reference wavelength. Cell survival was estimated from the equation: % cell survival=100×(At−Ac), where At and Ac are the absorbencies (450 nm) of the XTT colorimetric reaction (ATCC) in treated and control cultures respectively minus non-specific absorption measured at 750 nm. Absorbance of medium alone was also deducted from specific readings.
MCF-10A cells were included as an example of a non-tumorigenic line. XTT viability assays were carried out in the presence of the indicated doses of strigolactone analogs following 3 days of treatment. Resulting differences in absorbance readings following strigolactone analogs treatment reflect changes in proliferation and cell survival (FIG. 7A-C): Cells were seeded into 96 well plates in normal growing media. The following day media was replaced with phenol-free DMEM supplemented with 10% charcoal-stripped serum and the indicated doses of strigolactone analog or vehicle (cont.) alone. Viability was assayed after 3 days (XTT, ATCC).

U20S = test: XTT viability assay; type: cell-based, human; details: 3 days
Procedure: (§1) Viability was assayed after 3 days (XTT, ATCC). IC50 concentrations are indicated (Table 3 above).

DU145 = test: XTT viability assay; type: cell-based, human; details: DU145, 3 days
Procedure: as §1

K562 = test: XTT viability assay; type: cell-based, human; details: K562, 3 days
Procedure: as §1

MCF-7 = test: XTT viability assay; type: cell-based, human; details: MCF-7, 3 days
Procedure: as §1

HT-29 = test: XTT viability assay; type: cell-based, human; details: HT-29, 3 days
Procedure: as §1

SW480 = test: XTT viability assay; type: cell-based, human; details: SW480, 3 days
Procedure: as §1

HCT116 = test: XTT viability assay; type: cell-based, human; details: HCT116, 3 days
Procedure: as §1

MDA-MB-231 [1] = test: XTT viability assay; type: cell-based, human; details: for IC50 at 72 h: MDA-MB-231, 3 days
Procedure: as §1

PC3 = test: XTT viability assay; type: cell-based, human; details: PC3, 3 days
Procedure: as §1

T47D = test: XTT viability assay; type: cell-based, human; details: 3 days
Procedure: as §1

LNCaP = test: XTT viability assay; type: cell-based, human; details: 3 days
Procedure: as §1

MCF-7 mammospheres [2] = test: cells; type: cell-based, human; details: for Mammosphere numbers (>100 μM), percentage of vehicle treated control: 5 days; for viability at 5 ppm: Homo sapiens, MCF7, read-out: XTT viability of dissociated mammospheres; for Mammosphere morphology: 2.5-5 ppm, after 48 hours
Procedure: (§2) Given the similar effects the other strigolactone analogs had on breast cancer cell line growth compared to GR-24, we anticipated that the strigolactone analogs would also have similar effects on MCF-7 primary mammosphere formation (FIG. 10): MCF-7 cells were seeded in MEBM media into low attachment, 96 well plates in duplicate at 3000 cells per well. The same day the indicated doses of strigolactone analogs were added. After 7 days representative images were taken. […] Like GR-24, the doses required to inhibit mammosphere formation are lower than that required to inhibit proliferation in monolayer cultures (5 fold lower; ST-362 and MEB-55, 3 fold lower; ST-357). To determine if the sensitivity to strigolactone analogs treatments was specific to mammosphere formation or whether it extended to the integrity and survival of mature mammospheres, MCF-7 mammospheres were grown in the absence of strigolactone analogs and after 7 days (or once mammospheres had reached a mean diameter of over […]), strigolactone analogs were added to the growth media (FIG. 10) at the indicated doses. MCF-7 cells were seeded in MEBM media into low attachment, 96 well plates in duplicate at 3000 cells per well and primary mammospheres left to grow for 7 days. At which time the indicated doses of strigolactone analogs were added to the media. FIG. 11A is a representative image of mammospheres treated with 5 ppm concentrations, showing dissociation after 2 days of exposure to strigolactone analogs. […] Following […] treatment, mammospheres were monitored visually after 24 and 48 hours. No changes were observed following 24 hours of strigolactone analogs treatment. […] At 5 ppm concentrations EG-5, EG-9C, ST-357, ST-362 and MEB-55 reduce mammosphere numbers from 86.7+6.8 (vehicle control) to 23+5, 38+6.2, 6+2, 8.3+3.5 and 9.3+1.5%, respectively. At 2.5 ppm concentrations, mammosphere numbers were reduced to 35+6.9 (EG-5), 52+12.3 (EG-9C), 22+8.5 (ST-357), 6+1.7 (ST-362) and 20.7+8.6 (MEB-55). […] XTT viability assays were also carried out on dissociated mammospheres. At concentrations of 5 ppm, EG-5, ST-362 and MEB-55 reduced viability to 3.7+0.5, 25.5+8.8 and 4.6+1.1% respectively.

MCF-7 mammospheres [3] = test: Mammosphere formation; type: cell-based, human; details: for Dose to block/inhibit mammosphere formation, fold lower than for monolayer growth: MCF-7
Procedure: Adherent cells were gently trypsinized, (0.05% trypsin/EDTA) washed twice in PBS and filtered through a […] cell sieve to obtain a single cell suspensions. Cells were diluted to a concentration of 10,000 cell/ml in serum-free phenol-red free MEBM (MEGM Bulletkit, Lonza) supplemented with 5 μg/ml bovine insulin, 20 ng/ml recombinant epidermal growth factor, 20 ng/ml basic fibroblast growth factor (Gibco), 1×B27 supplement, 0.5 μg/ml hydrocortisone (MEGM Bulletkit, Lonza). For MDA-MB-231 mammosphere cultures serum-free phenol red-free CnT-27 medium with growth additives (CellnTEC Advanced cell systems, Bern, Switzerland) was used as previously described. 0.1 ml was seeded per well of a Ultralow attachment 96 well plates. The following day the indicated doses of GR-24 (ppm) or vehicle alone (0.6% acetone f/c) were added. Media was replenished every 3-4 days. Self-renewal capacity of the mammospheres was determined by re-plating and producing further generations of mammospheres. Secondary mammospheres were cultivated by dissociation (trypsinization with gently vortexing) of 10-14 day old primary mammospheres. Single cell suspensions were obtained as described above.
as §2

BJ fibroblast = test: Cell cycle analysis (propidium iodide, flow cytometry); type: cell-based, human; details: 48 hours
Procedure: (§3) Adherent cells were trypsinyzed, washed twice with PBS and filtered through a […] cell sieve. DNA content was assessed by flow cytometry. Cells were seeded at densities of 1.5×10^5 cells (MDA-MB-231, MDA-MB-436), or 4×10^5 cells (MCF-7 and MCF10A), or 2×10^5 cells (SW480, HT-29), or 5×10^5 cells (HCT116), per well in DMEM with 10% FBS in 6-well plate culture dishes. […] After 48 hours, cells were washed twice with PBS (pH 7.4), centrifuged at 360 g for 10 minutes at 4° C., and fixed in chilled ethanol (70%; v/v in PBS) with gentle vortex mixing. To determine their DNA contents, the cells were stained with 40 μg/ml propidium iodide (hereinafter PI) and analyzed using a FACSCalibur flow cytometer and CellQuest analysis software (Becton Dickinson, San Jose, Calif.). Where phosphoHistone-H3 staining was carried out, cells were incubated with polyclonal antibody against phosphoHistone H3 and then with secondary Goat anti-rabbit IgG-conjugated to FITC prior to PI staining.

MDA-MB-231 [4] = test: as above; type: cell-based, human; details: 48 hours
Procedure: as §3

[5] = 5 ppm, vehicle control 86.7+6.8

Structure (SMILES) | IC50 at 72 h (DU145) | IC50 at 72 h (K562) | IC50 at 72 h (MCF-7) | IC50 at 72 h (HT-29) | IC50 at 72 h (SW480) | IC50 at 72 h (HCT116) | IC50 at 72 h (MDA-MB-231 [1]) | IC50 at 72 h (PC3) | IC50 at 72 h (T47D) | IC50 at 72 h (LNCaP) | IC50 at 72 h (MCF10A) | IC50 at 72 h (U20S) | Mammosphere numbers (>100 μM), percentage of vehicle treated control (MCF-7 mammospheres [2]; 2.5 ppm) | Mammosphere numbers (>100 μM), percentage of vehicle treated control (MCF-7 mammospheres [2]; [5]) | viability at 5 ppm (MCF-7 mammospheres [2]) | Mammosphere formation (MCF-7 mammospheres [3]; 5 ppm and above) | Mammosphere morphology (MCF-7 mammospheres [2]) | Mammosphere formation (MCF-7 mammospheres [3]; 1 ppm, p<0.01) | Mammosphere growth (MCF-7 mammospheres [3]; 2.5 ppm) | Dose to block/inhibit mammosphere formation, fold lower than for monolayer growth (MCF-7 mammospheres [3]) | other results
CC1=CC(O/C=C2\Cc3c(n(C)c4ccccc34)C2=O)OC1=O (racemic) [EG-5, (±) (2E)-4-methyl-2-(4-methyl-5-oxo-2,5-dihydrofuran-2-yloxymethylene)-1,4-dihydro-2H-cyclopenta[b]indol-3-one] | >15 ppm | >15 ppm | 17.5 ppm | >15 ppm | >15 ppm | >15 ppm | 7.5 ppm | >15 ppm | 8.8 ppm | 13 ppm | >15 ppm | 3.9 ppm | 35+6.9% | 23+5% | 3.7% | completely block mammosphere formation | – | – | – | – | Cell Cycle Distribution G1 (BJ fibroblast; 10 ppm): 82.29%; Cell Cycle Distribution G2 (BJ fibroblast; 10 ppm): 10.50%; Cell Cycle Distribution S (BJ fibroblast; 10 ppm): 4.480%; SubG1/Apoptosis (BJ fibroblast; 10 ppm): 0.49; Cell Cycle Distribution G1 (MDA-MB-231 [4]; MDA-MB-231, 10 ppm): 34.74%; Cell Cycle Distribution G2 (MDA-MB-231 [4]; MDA-MB-231, 10 ppm): 35.70%; Cell Cycle Distribution S (MDA-MB-231 [4]; MDA-MB-231, 10 ppm): 14.59%; SubG1/Apoptosis (MDA-MB-231 [4]; MDA-MB-231, 10 ppm): 11.32
CC1=C[C@H](O/C=C2/C(=O)O[C@@H]3c4ccccc4C[C@H]23)OC1=O (relative stereo) [GR-24, (3aR*,8bS*,E)-3-(((R*)-4-methyl-5-oxo-2,5-dihydrofuran-2-yloxy)methylene)-3,3a,4,8b-tetrahydro-2H-indeno[1,2-b]furan-2-one] | – | – | – | – | – | – | – | – | – | – | – | – | – | – | – | – | – | severely attenuated | – | 5.7 fold | Mammosphere growth (MCF-7 mammospheres [3]; 0.5 ppm, p<0.05): inhibited to a lesser degree; Increase in the sub-G1/apoptotic fraction compared to vehicle (MDA-MB-231 [4]; 10 ppm): 4.6 fold
CC1=CC(O/C=C2\Cc3c(n(C)c4cc(-c5cccs5)ccc34)C2=O)OC1=O (racemic) [MEB-55, (±) 2E-4-methyl-2-(4-methyl-5-oxo-2,5-dihydrofuran-2-yloxymethylene)-6-thiophen-2-yl-1,4-dihydro-2H-cyclopenta[b]indol-3-one] | 12.8 ppm | 8.1 ppm | >12.8 ppm | 8.2 ppm | 9.7 ppm | 12.8 ppm | 3.9 ppm | 8.8 ppm | 5.0 ppm | 12 ppm | >15 ppm | 2.7 ppm | 20.7 ± 8.6% | 9.3+1.5% | 4.6% | completely block mammosphere formation | exhibited a looser morphology and appeared to be dissociating | significantly inhibit mammosphere formation | block mammosphere growth | 5 fold | Cell Cycle Distribution G1 (BJ fibroblast; 5 ppm): 78.96%; Cell Cycle Distribution G2 (BJ fibroblast; 5 ppm): 11.54%; Cell Cycle Distribution S (BJ fibroblast; 5 ppm): 5.930%; SubG1/Apoptosis (BJ fibroblast; 5 ppm): 0.57; Cell Cycle Distribution G1 (MDA-MB-231 [4]; MDA-MB-231, 5 ppm): 49.61%; Cell Cycle Distribution G2 (MDA-MB-231 [4]; MDA-MB-231, 5 ppm): 28.33%; Cell Cycle Distribution S (MDA-MB-231 [4]; MDA-MB-231, 5 ppm): 14.51%; SubG1/Apoptosis (MDA-MB-231 [4]; MDA-MB-231, 5 ppm): 3.88

The next lines start with results.

IC50 at 72 h (DU145) | IC50 at 72 h (K562) | IC50 at 72 h (MCF-7) | IC50 at 72 h (HT-29) | IC50 at 72 h (SW480) | IC50 at 72 h (HCT116) | IC50 at 72 h (MDA-MB-231 [1]) | IC50 at 72 h (PC3) | IC50 at 72 h (T47D) | IC50 at 72 h (LNCaP) | Structure (SMILES) | IC50 at 72 h (MCF10A) | IC50 at 72 h (U20S) | Mammosphere numbers (>100 μM), percentage of vehicle treated control (MCF-7 mammospheres [2]; 2.5 ppm) | Mammosphere numbers (>100 μM), percentage of vehicle treated control (MCF-7 mammospheres [2]; [5]) | viability at 5 ppm (MCF-7 mammospheres [2]) | Mammosphere formation (MCF-7 mammospheres [3]; 5 ppm and above) | Mammosphere morphology (MCF-7 mammospheres [2]) | Mammosphere formation (MCF-7 mammospheres [3]; 1 ppm, p<0.01) | Mammosphere growth (MCF-7 mammospheres [3]; 2.5 ppm) | Dose to block/inhibit mammosphere formation, fold lower than for monolayer growth (MCF-7 mammospheres [3]) | other results
7.5 ppm | 4.3 ppm | 8.1 ppm | 7.3 ppm | 2.9 ppm | 6.0 ppm | 2.9 ppm | >15 ppm | 8.6 ppm | 9.8 ppm | CC1=CC(O/C=C2/C(=O)c3c(c4cc(-c5scc6c5OCCO6)ccc4n3C)C2C)OC1=O (stereo not shown) [ST-362, (2E)-2-[(2,5-dihydro-4-methyl-5-oxofuran-2-yloxy)methylene]-1,2-dihydro-7-(2,3-dihydrothieno[3,4-b][1,4]dioxin-7-yl)-1,4-dimethyl-cyclopenta[b]indole-3-(4H)-one] | >15 ppm | 2.8 ppm | 6+1.7% | 8.3+3.5% | – | completely block mammosphere formation | exhibited a looser morphology and appeared to be dissociating | significantly inhibit mammosphere formation | block mammosphere growth | 5 fold | IC20 concentration (MDA-MB-231 [1]; MDA-231, XTT): 1.5 ppm; Cell Cycle Distribution G1 (BJ fibroblast; 5 ppm): 83.42%; Cell Cycle Distribution G2 (BJ fibroblast; 5 ppm): 12.86%; Cell Cycle Distribution S (BJ fibroblast; 5 ppm): 1.580%; SubG1/Apoptosis (BJ fibroblast; 5 ppm): 0.72; Cell Cycle Distribution G1 (MDA-MB-231 [4]; MDA-MB-231, 5 ppm): 42.17%; Cell Cycle Distribution G2 (MDA-MB-231 [4]; MDA-MB-231, 5 ppm): 37.93%; Cell Cycle Distribution S (MDA-MB-231 [4]; MDA-MB-231, 5 ppm): 11.90%; SubG1/Apoptosis (MDA-MB-231 [4]; MDA-MB-231, 5 ppm): 4.17
>15 ppm | >15 ppm | >20 ppm | >15 ppm | >15 ppm | >15 ppm | 5.0 ppm | 5.3 ppm and 5.4 ppm | >10 ppm | 14.4 ppm | CC1=CC(O/C=C2/C(=O)c3c(c4cc(-c5cccs5)ccc4n3C)C2C)OC1=O (stereo not shown) [ST-357, (2E)-1,4-dimethyl-2-((4-methyl-5-oxo-2,5-dihydrofuran-2-yloxy)methylene)-7-(thiophen-2-yl)-1,2-dihydrocyclopenta[b]indol-3(4H)-one] | >15 ppm | 4.5 ppm | 22+8.5% | 6+2% | – | completely block mammosphere formation | exhibited a looser morphology and appeared to be dissociating | significantly inhibit mammosphere formation | significant reduction in mammosphere growth | 3 fold | –
